# Test results: patent US20240342685A1, “ABSORBENT COMPOUNDS FOR CAPTURING CARBON DIOXIDE” (The Regents of the University of California, priority 2021, published 2024)
# Read-outs that look alike come from different tables or passages of the source.
# How the values were obtained:
# [1] = cited from earlier work
# [2] = Aspen Plus absorber/stripper process model, CO2 vapor liquid equilibrium; conditions: 11% mole fraction
# From the text: For example, the suitability of a PEP variant for non-enzymatic carbon capture can be evaluated by modeling. The Electric Power Research Institute (EPRI; Palo Alto, CA) maintains and operates Aspen Plus process models based on the absorber/stripper configuration shown in FIG. 21 and standard operational parameters (e.g., as described in the Examples). These models are configured to accept generalized solvent (absorbent) properties and calculate the resulting energy penalty. Model inputs can include the solubility, viscosity, and heat capacity of the PEP variant, as well as the CO2 vapor liquid equilibrium (VLE) of the underlying carbon capture reaction equilibrium (absorption/desorption). VLE describes the number of moles CO2 per unit volume solution absorbed via reaction and dissolution as a function of CO2 partial pressure above solution. […] At higher temperature (e.g., 120° C. stripper), reactants are favored and HCO3 desorbs, releasing CO2 back into the gas phase for capture and compression. The difference ACO2 between these temperature extremes determines the absorption capacity of the solvent, or cyclic capacity of the absorber/stripper system.
# These models can be used to quantify the energy penalty of a PEP variant for carbon capture chemistry relative to the MEA benchmark. […] The improvement can be evaluated at the temperatures of the absorber (40° C.) and stripper (120° C.).
# [3] = Shear viscosity by Green-Kubo relation, MD simulation; conditions: aqueous solution
# Procedure: These simulations were performed under the same conditions and with the same forcefield as the PEP simulations. The shear viscosity of a liquid can be computed through several different atomistic simulation methods. […] In this method, the shear viscosity is obtained from the integral over time of the pressure tensor autocorrelation function: where V is the volume of the system, kB is the Boltzmann constant, T is temperature, Pxy denotes the element xy of the pressure tensor, and the angle bracket refers to the ensemble average. Viscosity plays an important role in pumping costs for moving aqueous PEP solutions between the absorber and stripper.
# [4] = in water at 298 K; non-reactive MD literature; cited from earlier work
# [5] = pure water; cited from earlier work
SMILES,"Enthalpy of Solution, Literature value ([1]; 3 m to 4 m)","Enthalpy of Solution, Literature value ([1]; 3 m to 5 m)","Enthalpy of Solution, Literature value ([1]; 4 m to 5 m)",other results
CC(=O)O [Acetic Acid],-0.0461 kcal/mol,-0.0418 kcal/mol,-0.088 kcal/mol,–
O=CO [Formic Acid],0 kcal/mol,0 kcal/mol,0 kcal/mol,–
"NCCO [MEA, monoethanolamine]",–,–,–,CO2 remaining bound in solution during absorber-stripper cycling ([2]; CCNG): 16%; CO2 remaining bound in solution during absorber-stripper cycling ([2]; SCPC): 29%
"C=C(OP(=O)(O)O)C(=O)O [PEP, phosphoenolpyruvate]",–,–,–,"viscosity relative to the standard MEA solution ([3]; 45 to 55 wt %): roughly triple; real viscosity ([3]; 45 to 55 wt % (9.8 mol %), estimated): about 3 mPa*s"
O=C(O)O [bicarbonate],–,–,–,"diffusion coefficient, published literature [4]: 1.17×10^−9 m^2s^−1"
O [water],–,–,–,"viscosity, expected value [5]: around 0.79 mPa·s"
